From US7384959B2, “Treatment of convulsive states” (priority 1999, dated 2008)
Marks after values point to notes of the source that are not given here.

Experiments:
rat [1] = assay: barbital interaction (sleep induction) test; type: in vivo; details: for NUMBER OF RATS SLEEPING: 10 rats per group; for SLEEP DURATION mean ± s.e.m.: maximum 6 hours after barbital injection
From the text: (§1) The following Tables report the results of the Irwin, PTZ and barbital interaction (sleep induction) tests. Description of these tests may be found in Psychopharmacologica, 13:222-257 (1968), Krall et al, Epilepsia 19:409-428 (1978), and Simon et al, J. Pharmacol, Paris 13:241-252 (1982). See also Roux et al, Phoenix international Pharmacology Reports Nos. D30.2061/2 and D99.021/2.
In Table 3, the following apply: Student's t Test: NS=Not Significant; *=p<0.05; **=p<0.01; ***=<0.001 Fisher's Exact Test: (number of rats sleeping) No indication=Not Significant; +=p<0.05; ++=p<0.01; +++=p<0.001 • (#): maximum=6 hours after barbital injection (taken 50 minutes after barbital injection).

[2] = intravenous administration; Srinivas 1993; cited from earlier work
patients with epilepsy = details: ABPI Compendium 1999-2000; cited from earlier work
rat [3] = assay: Pentylenetetrazole (PTZ) Seizure Test; type: in vivo; details: for NUMBER OF CLONIC CONVULSIONS number of rats / NUMBER OF DEATHS number of rats / NUMBER OF TONIC CONVULSIONS number of rats: 10 rats per group; for NUMBER OF CLONIC CONVULSIONS number of rats / NUMBER OF DEATHS number of rats / NUMBER OF TONIC CONVULSIONS number of rats / NUMBER OF CLONIC CONVULSIONS % antagonism / NUMBER OF DEATHS % antagonism / NUMBER OF TONIC CONVULSIONS % antagonism: observed during 60 minutes
From the text: as §1
Table 2a reports mean results based on animals showing the symptoms (minimum=3 animals). Table 2b reports results observed during 60 minutes. In these Tables: Student's t Test: NS=Not Significant; *=p<0.05; ** p<0.01; ***=p<0.001 Fisher's Exact Test: No indication=Not Significant; **=p<0.01; ***=p<0.001

[4] = tested on: attention-deficit hyperactivity disorder (ADHD); details: Patrick et al 1987; cited from earlier work

COC(=O)C(c1ccccc1)C1CCCCN1 (racemic) [d,l-MPH, d,l-threo-methylphenidate]
SLEEP DURATION % change from control (rat [1]; 0.25 mg/kg s.c. −30 min): +51% | NUMBER OF RATS SLEEPING (rat [1]; 0.25 mg/kg s.c. −30 min): 9 | SLEEP DURATION mean ± s.e.m. (rat [1]; 0.25 mg/kg s.c. −30 min): 94.2 ± 18.3 NS min | SLEEP DURATION % change from control (rat [1]; 0.5 mg/kg s.c. −30 min): −19% | NUMBER OF RATS SLEEPING (rat [1]; 0.5 mg/kg s.c. −30 min): 8 | SLEEP DURATION mean ± s.e.m. (rat [1]; 0.5 mg/kg s.c. −30 min): 50.2 ± 16.2 NS min | SLEEP DURATION % change from control (rat [1]; 1 mg/kg s.c. −30 min): −100% | NUMBER OF RATS SLEEPING (rat [1]; 1 mg/kg s.c. −30 min): 0 +++ | SLEEP DURATION mean ± s.e.m. (rat [1]; 1 mg/kg s.c. −30 min): 0.0 ± 0.0*** min | SLEEP DURATION % change from control (rat [1]; 2 mg/kg s.c. −30 min): −70% | NUMBER OF RATS SLEEPING (rat [1]; 2 mg/kg s.c. −30 min): 4 + | SLEEP DURATION mean ± s.e.m. (rat [1]; 2 mg/kg s.c. −30 min): 19.0 ± 12.6 min | SLEEP DURATION % change from control (rat [1]; 4 mg/kg s.c. −30 min): −100% | NUMBER OF RATS SLEEPING (rat [1]; 4 mg/kg s.c. −30 min): 0 +++ | SLEEP DURATION mean ± s.e.m. (rat [1]; 4 mg/kg s.c. −30 min): 0.0 ± 0.0*** min | time after dosing with similar plasma levels of the two enantiomers [2]: around 1.5 hours | effect on seizure frequency (patients with epilepsy): can cause an increase in seizure frequency in a small number of such patients

Cn1c(=O)c2c(ncn2C)n(C)c1=O [Caffeine]
SLEEP DURATION % change from control (rat [1]; 16 mg/kg s.c. −30 min): −99% | NUMBER OF RATS SLEEPING (rat [1]; 16 mg/kg s.c. −30 min): 1 +++ | SLEEP DURATION mean ± s.e.m. (rat [1]; 16 mg/kg s.c. −30 min): 0.5 ± 0.5*** min

CN1C(=O)CN=C(c2ccccc2)c2cc(Cl)ccc21 [DIAZEPAM, diazepam, reference compound]
NUMBER OF CLONIC CONVULSIONS number of rats (rat [3]; 4 mg/kg s.c. −30 min): 0+++ | NUMBER OF DEATHS number of rats (rat [3]; 4 mg/kg s.c. −30 min): 0+++ | NUMBER OF TONIC CONVULSIONS number of rats (rat [3]; 4 mg/kg s.c. −30 min): 0+++ | NUMBER OF CLONIC CONVULSIONS % antagonism (rat [3]; 4 mg/kg s.c. −30 min): 100% | NUMBER OF DEATHS % antagonism (rat [3]; 4 mg/kg s.c. −30 min): 100% | NUMBER OF TONIC CONVULSIONS % antagonism (rat [3]; 4 mg/kg s.c. −30 min): 100%

CCOC(=O)c1ncn2c1CN(C)C(=O)c1cc(N=[N+]=[N-])ccc1-2 [RO 15-4513, reference compound]
NUMBER OF CLONIC CONVULSIONS number of rats (rat [3]; 2 mg/kg s.c. −30 min): 10 | NUMBER OF DEATHS number of rats (rat [3]; 2 mg/kg s.c. −30 min): 10 | NUMBER OF TONIC CONVULSIONS number of rats (rat [3]; 2 mg/kg s.c. −30 min): 10 | NUMBER OF CLONIC CONVULSIONS % antagonism (rat [3]; 2 mg/kg s.c. −30 min): 0% | NUMBER OF DEATHS % antagonism (rat [3]; 2 mg/kg s.c. −30 min): 0% | NUMBER OF TONIC CONVULSIONS % antagonism (rat [3]; 2 mg/kg s.c. −30 min): 0% | LATENCY TO CLONIC CONVULSIONS % change from control (rat [3]; 2 mg/kg s.c. −30 min, rat): −37% | LATENCY TO CLONIC CONVULSIONS mean ± s.e.m. (rat [3]; 2 mg/kg s.c. −30 min, rat): 345.0 ± 59.4* sec | LATENCY TO DEATHS % change from control (rat [3]; 2 mg/kg s.c. −30 min, rat): −36% | LATENCY TO DEATHS mean ± sem. (rat [3]; 2 mg/kg s.c. −30 min, rat): 837.0 ± 116.7** sec | LATENCY TO TONIC CONVULSIONS % change from control (rat [3]; 2 mg/kg s.c. −30 min, rat): −42% | LATENCY TO TONIC CONVULSIONS mean ± sem. (rat [3]; 2 mg/kg s.c. −30 min, rat): 681.0 ± 102.6** sec

COC(=O)[C@H](c1ccccc1)[C@H]1CCCCN1 [d-MPH, d-threo-Methylphenidate]
SLEEP DURATION % change from control (rat [1]; 0.25 mg/kg s.c. −30 min): −83% | NUMBER OF RATS SLEEPING (rat [1]; 0.25 mg/kg s.c. −30 min): 6 | SLEEP DURATION mean ± s.e.m. (rat [1]; 0.25 mg/kg s.c. −30 min): 10.5 ± 5.3** min | SLEEP DURATION % change from control (rat [1]; 0.5 mg/kg s.c. −30 min): −65% | NUMBER OF RATS SLEEPING (rat [1]; 0.5 mg/kg s.c. −30 min): 8 | SLEEP DURATION mean ± s.e.m. (rat [1]; 0.5 mg/kg s.c. −30 min): 21.6 ± 13.5* min | SLEEP DURATION % change from control (rat [1]; 1 mg/kg s.c. −30 min): −97% | NUMBER OF RATS SLEEPING (rat [1]; 1 mg/kg s.c. −30 min): 3 ++ | SLEEP DURATION mean ± s.e.m. (rat [1]; 1 mg/kg s.c. −30 min): 2.1 ± 1.5*** min | SLEEP DURATION % change from control (rat [1]; 2 mg/kg s.c. −30 min): −100% | NUMBER OF RATS SLEEPING (rat [1]; 2 mg/kg s.c. −30 min): 0 ++ | SLEEP DURATION mean ± s.e.m. (rat [1]; 2 mg/kg s.c. −30 min): 0.0 ± 0.0*** min | pharmacological action in the treatment of ADHD [4]: is the property of the d-enantiomer
